Laboratory results published in paper PMC12631985 (Environmental Science & Technology, 2025).

Tests used:
AR mRNA = assay: Quantitative RT-PCR for DHT-induced AR mRNA expression in 22Rv1/MMTV-GRKO cells; type: cell-based, human; details: with DHT; highest noncytotoxic concentration (≥80% viability); n = 3
zebrafish = details: previous research; ref number not printed at the place; cited from earlier work
AR protein expression = assay: Western blot for DHT-induced AR protein expression; details: highest noncytotoxic concentration (≥80% viability), n = 3

SMILES | reduction in AR mRNA levels compared to the DHT-only treatment group (AR mRNA) [%] | toxicity in zebrafish (zebrafish) | suppression level of DHT-induced AR protein expression compared with the DHT-only treatment group (AR protein expression) [%]
CC(C)(C)C(O)(CCc1ccc(Cl)cc1)Cn1cncn1 (centres unmarked) [tebuconazole] | 37.5 | – | –
N#CC(CCc1ccc(Cl)cc1)(Cn1cncn1)c1ccccc1 (centres unmarked) [fenbuconazole] | 45.0 | significantly impaired mitochondrial function and locomotor activity | 24.6
C[Si](Cn1cncn1)(c1ccc(F)cc1)c1ccc(F)cc1 [flusilazole] | 60.4 | – | –
CC1(C)CCC(Cc2ccc(Cl)cc2)C1(O)Cn1cncn1 (centres unmarked) [metconazole] | 27.8 | – | –
Fc1ccc([C@]2(Cn3cncn3)O[C@H]2c2ccccc2Cl)cc1 (racemic) [epoxiconazole] | 59.0 | – | –
CCCOC/C(=N\c1ccc(Cl)cc1C(F)(F)F)n1ccnc1 [triflumizole] | 26.5 | – | –
